Earlier results in PMC8617944, “Preclinical Pharmacokinetics and Acute Toxicity in Rats of 5-{[(2E)-3-Bromo-3-carboxyprop-2-enoyl]amino}-2-hydroxybenzoic Acid: A Novel 5-Aminosalicylic Acid Derivative with Potent Anti-Inflammatory Activity” (Molecules, 2021).

Experiments:
[1] = parameters: method as in ref 32, 33 = [32]; doi:10.1016/j.arabjc.2016.12.026; 32. Cabrera Pérez L.C. Gutiérrez Sánchez M. Mendieta Wejebe J.E. Hernández Rodríguez M. Fragoso Vázquez M.J. Salazar J.R. Correa Basurto J. Padilla Martínez I.I. Rosales Hernández M.C. Novel 5-aminosa || [33]; 33. Correa Basurto J. Rosales Hernández M.C. Mendieta Wejebe J.E. Trujillo Ferrara J.G. Padilla Martínez I.I. Ramírez Durán L.A. Alemán González Duhart D. Síntesis de un derivado del ácido 5-aminosali; settings: 0.408 mM; cited from earlier work
rats = settings: rat, in vivo, po; cited from earlier work

**Q.** For `Nc1ccc(O)c(C(=O)O)c1` [Compound 5-ASA, 5-aminosalicylic acid], which “reduction of the free radical DPPH” value [1] is on record?
**A.** about 85%

**Q.** And the LD50 (rats)?
**A.** 2800 mg/kg
